The record followed here is patent publication EP1228063B1, “SUBSTITUTED PYRIDINES AND PYRIDAZINES WITH ANGIOGENESIS INHIBITING ACTIVITY” (BAYER CORPORATION, priority 1999, dated 2001).

Bounds are passed on as bounds.

Assay [1] deals with T1, NIH3T3 cells expressing the full length KDR receptor (Homo sapiens, UniProt P35968).
T1 construct: NIH3T3 cells expressing the full length KDR receptor; expressed in transfected cells; host or cells: NIH3T3 cells (G418 selection)
Nature of the assay: Cell mechanistic assay - Inhibition of 3T3 KDR phosphorylation. In kind it is cell-based. Conditions: VEGF (30 ng / ml) stimulated KDR phosphorylation in NIH3T3 cells, 30 minutes preincubation. On the procedure: NIH3T3 cells expressing the full length KDR receptor were grown in DMEM (Life Technologies, Inc., Grand Island, NY) supplemented with 10% newborn calf serum, low glucose, 25 mM /L sodium pyruvate, pyridoxine hydrochloride and 0.2 mg/ ml of G418 (Life Technologies Inc., Grand Island, NY). The cells were maintained in collagen I-coated T75 flasks (Becton Dickinson Labware, Bedford, MA) in a humidified 5% CO2 atmosphere at 37°C.
Fifteen thousand cells were plated into each well of a collagen 1-coated 96-well plate in the DMEM growth medium. Six hours later, the cells were washed and the medium was replaced with DMEM without serum. After overnight culture to quiesce the cells, the medium was replaced by Dulbecco's phosphate-buffered saline (Life Technologies Inc., Grand Island, NY) with 0.1 % bovine albumin (Sigma Chemical Co., St Louis, MO). After adding various concentrations (0-300 nM) of test compounds to the cells in 1% final concentration of DMSO, the cells were incubated at room temperature for 30 minutes. The cells were then treated with VEGF (30 ng / ml) for 10 minutes at room temperature. Following VEGF stimulation, the buffer was removed and the cells were lysed by addition of 150 µl of extraction buffer (50 mM Tris, pH 7.8, supplemented with 10% glycerol, 50 mM BGP, 2 mM EDTA, 10 mM NaF, 0.5 mM NaVO4, and 0.3% TX-100) at 4°C for 30 minutes.
To assess receptor phosphorylation, 100 microliters of each cell lysate was added to the wells of an ELISA plate precoated with 300 ng of antibody C20 (Santa Cruz Biotechnology, Inc., Santa Cruz , CA). Following a 60-minute incubation, the plate was washed and bound KDR was probed for phosphotyrosine using an anti-phosphotyrosine mAb clone 4G10 (Upstate Biotechnology, Lake Placid, NY). The plate was washed and wells were incubated with anti-mouse IgG/HRP conjugate (Amersham International plc, Buckinghamshire, England) for 60 minutes. Wells were washed and phosphotyrosine was quantitated by addition of 100 µl per well of 3,3',5,5' tetramethylbenzidine (Kirkegaard and Perry, TMB Microwell 1 Component peroxidase substrate) solution. Color development was arrested by the addition of 100 µl 1% HCl based stop solution (Kirkegaard and Perry, TMB 1 Component Stop Solution).
Optical densities (OD) were determined spectrophotometrically at 450 nm in a 96-well plate reader (SpectraMax 250, Molecular Devices). Background (no VEGF added) OD values were subtracted from all ODs and percent inhibition was calculated according to the equation: % Inhibition = ((OD(VEGF control)-OD(with test compound)) × 100)/(OD(VEGF control)-OD(no VEGF added)) [formula]
IC50s were determined on some of the exemplary materials with a least squares analysis program using compound concentration versus percent inhibition. Compounds that have IC50 ≤ 20 nM in this assay include those of Examples 2, 6, 10, 11, 14, 23, 96, 101, 102, 103, 104, 105. Compounds that have IC50 values between 20 nM and 50 nM include those of examples 1, 4, 8, 9, 12, 13, 17, 24, 93, 98. Compounds that have IC50 values between 50 nM and 400 nM include those of examples 97, 99, and 100.

For assay [2], the system named is SK-MEL2 human tumor cells that were transfected with a plasmid containing the murine VEGF gene. Briefly: Matrigel Angiogenesis Model (hemoglobin content of Matrigel pellets). The assay is classed as in vivo, Mice. Conditions: vs. vehicle control animals, 12 days post-implantation. On the procedure: Preparation of Matrigel Plugs and in vivo Phase: Matrigel® (Collaborative Biomedical Products, Bedford, MA) is a basement membrane extract from a murine tumor composed primarily of laminin, collagen IV and heparan sulfate proteoglycan. It is provided as a sterile liquid at 4° C, but rapidly forms a solid gel at 37° C.
Liquid Matrigel at 4° C was mixed with SK-MEL2 human tumor cells that were transfected with a plasmid containing the murine VEGF gene with a selectable marker. Tumor cells were grown in vitro under selection and cells were mixed with cold liquid Matrigel at a ratio of 2 X 10^6 per 0.5 ml. […]
Optical densities were determined spectrophotometrically at 600 nm in a 96-well plate reader, SpectraMax 250 Microplate Spectrophotometer System (Molecular Devices, Sunnyvale, CA). Background Lysis Buffer readings were subtracted from all wells.
Total sample hemoglobin content was calculated according to the following equation: Total Hemoglobin = (Sample Lysate Volume) × (Hemoglobin Concentration) [formula]
The average Total Hemoglobin of Matrigel samples without cells was subtracted from each Total Hemoglobin Matrigel sample with cells. Percent inhibition was calculated according to the following equation: % Inhibition = ((Average Total Hemoglobin Drug-Treated Tumor Lysates) × 100)/((Average Total Hemoglobin Non-Treated Tumor Lysates)) [formula] […]

T1 sequence (P35968 20-1356): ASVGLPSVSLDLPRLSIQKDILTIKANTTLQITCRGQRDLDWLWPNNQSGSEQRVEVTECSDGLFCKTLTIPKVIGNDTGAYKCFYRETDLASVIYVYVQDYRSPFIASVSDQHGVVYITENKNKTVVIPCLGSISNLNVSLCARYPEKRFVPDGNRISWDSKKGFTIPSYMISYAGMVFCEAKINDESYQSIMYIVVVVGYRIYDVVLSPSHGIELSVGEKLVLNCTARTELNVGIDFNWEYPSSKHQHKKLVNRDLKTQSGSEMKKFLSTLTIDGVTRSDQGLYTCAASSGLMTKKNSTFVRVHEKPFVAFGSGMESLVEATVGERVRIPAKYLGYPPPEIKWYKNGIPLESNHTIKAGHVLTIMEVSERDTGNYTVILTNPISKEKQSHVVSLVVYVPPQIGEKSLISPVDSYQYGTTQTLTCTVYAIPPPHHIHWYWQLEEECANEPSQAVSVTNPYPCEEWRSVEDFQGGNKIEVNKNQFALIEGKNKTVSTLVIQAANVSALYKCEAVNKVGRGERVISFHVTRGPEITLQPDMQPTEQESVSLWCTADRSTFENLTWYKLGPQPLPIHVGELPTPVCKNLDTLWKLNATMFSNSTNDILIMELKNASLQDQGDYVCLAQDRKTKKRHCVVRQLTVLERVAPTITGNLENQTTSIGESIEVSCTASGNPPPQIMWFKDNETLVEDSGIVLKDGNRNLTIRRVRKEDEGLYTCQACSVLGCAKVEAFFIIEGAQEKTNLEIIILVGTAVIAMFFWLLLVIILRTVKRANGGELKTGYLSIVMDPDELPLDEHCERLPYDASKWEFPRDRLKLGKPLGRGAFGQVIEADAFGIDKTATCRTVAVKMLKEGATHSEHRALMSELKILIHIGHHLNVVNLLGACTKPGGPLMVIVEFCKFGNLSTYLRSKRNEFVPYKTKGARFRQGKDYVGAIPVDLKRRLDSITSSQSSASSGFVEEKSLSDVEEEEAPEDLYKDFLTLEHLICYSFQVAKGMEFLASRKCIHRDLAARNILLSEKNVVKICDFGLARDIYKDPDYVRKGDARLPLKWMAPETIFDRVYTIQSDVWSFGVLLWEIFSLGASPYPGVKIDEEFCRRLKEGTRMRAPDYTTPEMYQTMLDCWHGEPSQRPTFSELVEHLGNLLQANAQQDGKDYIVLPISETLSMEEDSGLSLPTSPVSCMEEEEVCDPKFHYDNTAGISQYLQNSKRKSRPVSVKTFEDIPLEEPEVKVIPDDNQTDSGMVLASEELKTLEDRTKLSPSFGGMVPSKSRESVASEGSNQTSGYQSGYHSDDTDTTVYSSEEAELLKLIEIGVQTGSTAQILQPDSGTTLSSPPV

Broadly, the IC50 is the point on the concentration scale where inhibition reaches its midpoint. Read a high IC50 as lower potency. `Clc1ccc(Nc2nnc(OCc3ccncc3)c3sccc23)cc1` [Example 8, 4-(4-chlorophenylamino)-7-(4-pyridylmethoxy)thieno-[2,3-d]pyridazine] yielded an IC50 in assay [1] of 20 to 50 nM. Besides, the “inhibition of total hemoglobin content of the Matrigel samples” value in assay [2] (100 mg/kg po sid) and in assay [2] (300 mg/kg po sid) was > 60% in each case.
